The text below walks through data of patent publication US10934274B2, “Quinoline derivatives as TAM RTK inhibitors” (Qurient Co., Ltd., priority 2015, dated 2021).

In one assay the target is T1, Met (Homo sapiens, UniProt P08581).
T1 construct: purchased Life Technologies
The experiment in a line: LanthaScreen Eu kinase binding assay, Met. To be noted: Tracer 236, read-out: cMet kinase binding activity (Kd). The protocol:
(§1) LanthaScreen® Eu Kinase Binding assays were conducted at Life Technologies using the manufacturer's specifications for each kinase indicated.
(§2) Briefly, the principle behind this assay is based upon the binding and displacement of an Alexa Fluor 647-labeled tracer to the kinase of interest. Binding of the tracer to the kinase is detected using an EU-labeled anti-tag antibody. Simultaneous binding of both the tracer and antibody to the kinase gives rise to a FRET-signal. Binding of an inhibitor to the kinase competes for binding with the tracer, resulting in a loss of FRET-signal.
(§3) Binding Assay Protocol for AXL, Mer, Tyro3 and Met
(§4) A given compound was diluted in DMSO to make a stock compound solution. The stock compound solution was serially diluted over eight steps in DMSO. Each diluted compound solution in DMSO was diluted in kinase buffer. Afterwards four kinds of working solution were prepared. First, Tracer-Working solution consists of Tracer 236 and Kinase Buffer. Second, Axl, Mer, Tyro3 or Met/anti-GST-AB-Working solution contained one of the kinases Axl, Mer, Tyro3, Met or anti-GST-AB (=anti glutathione-S-transferase antibody) in Kinase Buffer. Third, anti-GST-AB-Working solution was made with anti-GST-AB and Kinase Buffer. Last, in the DMSO-Working solution DMSO was added to Kinase Buffer to a final concentration to 3%. Each of the four kinds of working solutions were separately added to the assay plate and then incubated for 1 h at room temperature. After incubation, the assay plate was measured with respect to the FRET-Signal with the EnVision (Perkin Elmer) using the program LanthaHTRF-Assay. Data evaluation was done in the Quattro Workflow software.
(§5) Table 1 summarises the results obtained for AXL, Mer and Tyro3-kinases binding assays; table 2 summarises the results obtained for the Met kinase binding assay.

A further assay deals with T2, TYRO3 (Homo sapiens, UniProt Q06418).
T2 construct: purchased Life Technologies
T2 sequence (Q06418 41-890): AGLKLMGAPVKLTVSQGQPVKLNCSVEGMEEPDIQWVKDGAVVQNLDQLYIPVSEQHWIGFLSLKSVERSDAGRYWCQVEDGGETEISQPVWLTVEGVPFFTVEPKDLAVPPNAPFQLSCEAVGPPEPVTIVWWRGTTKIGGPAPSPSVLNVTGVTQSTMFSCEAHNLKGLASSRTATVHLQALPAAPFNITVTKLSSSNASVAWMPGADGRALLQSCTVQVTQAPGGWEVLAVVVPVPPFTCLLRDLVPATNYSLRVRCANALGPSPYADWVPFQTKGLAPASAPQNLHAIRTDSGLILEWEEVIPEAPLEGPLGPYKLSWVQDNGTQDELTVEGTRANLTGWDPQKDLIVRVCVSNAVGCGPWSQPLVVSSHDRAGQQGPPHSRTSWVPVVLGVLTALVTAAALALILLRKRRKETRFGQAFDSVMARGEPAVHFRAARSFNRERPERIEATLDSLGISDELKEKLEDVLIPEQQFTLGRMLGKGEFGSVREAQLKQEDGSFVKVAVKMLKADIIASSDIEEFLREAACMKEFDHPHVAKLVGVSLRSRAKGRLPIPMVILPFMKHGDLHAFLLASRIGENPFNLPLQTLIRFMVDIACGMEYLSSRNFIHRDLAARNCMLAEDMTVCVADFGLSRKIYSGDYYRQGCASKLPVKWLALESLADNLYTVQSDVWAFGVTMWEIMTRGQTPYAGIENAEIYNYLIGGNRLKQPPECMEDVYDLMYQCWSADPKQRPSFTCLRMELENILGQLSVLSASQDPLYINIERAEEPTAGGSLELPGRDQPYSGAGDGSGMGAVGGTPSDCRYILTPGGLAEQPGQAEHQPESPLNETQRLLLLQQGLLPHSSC
The experiment in a line: LanthaScreen Eu kinase binding assay, TYRO3. The settings on record: Tracer 236. On the procedure:
as §1, §2, §3, §4, §5

The target in a further assay is T3, Axl (Homo sapiens, UniProt P30530).
T3 construct: purchased Life Technologies
T3 sequence (P30530 26-894): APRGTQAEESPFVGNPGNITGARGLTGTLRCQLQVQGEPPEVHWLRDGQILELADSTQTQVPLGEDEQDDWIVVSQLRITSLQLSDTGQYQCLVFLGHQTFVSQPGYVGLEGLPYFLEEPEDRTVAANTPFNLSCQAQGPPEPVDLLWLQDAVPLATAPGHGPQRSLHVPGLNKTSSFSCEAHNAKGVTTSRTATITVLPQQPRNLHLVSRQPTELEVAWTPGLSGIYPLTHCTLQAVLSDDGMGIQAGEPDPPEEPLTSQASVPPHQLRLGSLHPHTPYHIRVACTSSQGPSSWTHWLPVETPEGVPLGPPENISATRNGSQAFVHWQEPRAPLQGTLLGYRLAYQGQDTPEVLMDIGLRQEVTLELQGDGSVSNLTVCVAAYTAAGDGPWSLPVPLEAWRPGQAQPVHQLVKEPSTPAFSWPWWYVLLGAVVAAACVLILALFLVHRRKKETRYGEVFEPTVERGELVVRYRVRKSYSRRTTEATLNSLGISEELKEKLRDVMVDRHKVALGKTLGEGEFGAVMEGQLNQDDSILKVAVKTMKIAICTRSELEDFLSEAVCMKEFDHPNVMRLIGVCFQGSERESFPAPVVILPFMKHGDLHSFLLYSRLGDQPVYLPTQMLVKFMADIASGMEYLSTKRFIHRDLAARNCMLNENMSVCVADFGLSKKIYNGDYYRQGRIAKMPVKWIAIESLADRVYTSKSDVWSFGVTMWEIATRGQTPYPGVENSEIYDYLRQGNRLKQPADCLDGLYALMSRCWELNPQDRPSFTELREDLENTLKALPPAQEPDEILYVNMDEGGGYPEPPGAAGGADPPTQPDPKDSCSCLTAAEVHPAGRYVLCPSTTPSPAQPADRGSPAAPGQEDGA
The experiment in a line: LanthaScreen Eu kinase binding assay, Axl. The settings on record: Tracer 236. The protocol:
as §1, §2, §3, §4, §5

The target in another assay is T4, Mer (Homo sapiens, UniProt Q12866).
T4 construct: purchased Life Technologies
T4 sequence (Q12866 21-999): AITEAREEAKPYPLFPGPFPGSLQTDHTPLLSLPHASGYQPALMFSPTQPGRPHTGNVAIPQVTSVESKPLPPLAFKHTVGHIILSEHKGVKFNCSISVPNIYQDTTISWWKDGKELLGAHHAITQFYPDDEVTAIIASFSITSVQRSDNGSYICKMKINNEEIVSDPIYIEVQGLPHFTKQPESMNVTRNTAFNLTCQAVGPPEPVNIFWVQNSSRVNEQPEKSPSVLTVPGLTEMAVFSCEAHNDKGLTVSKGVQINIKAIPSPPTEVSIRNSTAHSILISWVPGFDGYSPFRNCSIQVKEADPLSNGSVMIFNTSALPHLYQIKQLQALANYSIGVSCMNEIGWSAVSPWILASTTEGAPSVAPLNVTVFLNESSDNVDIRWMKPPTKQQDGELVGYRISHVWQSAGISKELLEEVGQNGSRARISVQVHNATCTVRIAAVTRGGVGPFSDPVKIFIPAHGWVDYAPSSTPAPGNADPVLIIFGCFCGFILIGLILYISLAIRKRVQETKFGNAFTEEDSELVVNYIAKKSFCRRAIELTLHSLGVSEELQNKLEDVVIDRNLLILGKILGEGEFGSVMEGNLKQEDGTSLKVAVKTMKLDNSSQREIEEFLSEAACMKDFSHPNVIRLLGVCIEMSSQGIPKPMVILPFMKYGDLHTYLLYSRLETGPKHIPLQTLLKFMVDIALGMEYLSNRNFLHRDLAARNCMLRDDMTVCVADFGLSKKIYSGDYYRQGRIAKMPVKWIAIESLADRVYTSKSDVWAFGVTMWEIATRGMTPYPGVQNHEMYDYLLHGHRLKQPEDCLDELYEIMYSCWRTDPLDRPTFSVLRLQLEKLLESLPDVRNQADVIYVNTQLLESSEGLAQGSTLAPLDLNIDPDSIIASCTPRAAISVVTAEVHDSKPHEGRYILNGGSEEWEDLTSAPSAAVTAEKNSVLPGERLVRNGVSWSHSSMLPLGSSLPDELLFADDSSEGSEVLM
As to the kind of experiment: LanthaScreen Eu kinase binding assay, Mer. The settings on record: Tracer 236. The protocol: as §1, §2, §3, §4, §5

T1 sequence (P08581 25-1390): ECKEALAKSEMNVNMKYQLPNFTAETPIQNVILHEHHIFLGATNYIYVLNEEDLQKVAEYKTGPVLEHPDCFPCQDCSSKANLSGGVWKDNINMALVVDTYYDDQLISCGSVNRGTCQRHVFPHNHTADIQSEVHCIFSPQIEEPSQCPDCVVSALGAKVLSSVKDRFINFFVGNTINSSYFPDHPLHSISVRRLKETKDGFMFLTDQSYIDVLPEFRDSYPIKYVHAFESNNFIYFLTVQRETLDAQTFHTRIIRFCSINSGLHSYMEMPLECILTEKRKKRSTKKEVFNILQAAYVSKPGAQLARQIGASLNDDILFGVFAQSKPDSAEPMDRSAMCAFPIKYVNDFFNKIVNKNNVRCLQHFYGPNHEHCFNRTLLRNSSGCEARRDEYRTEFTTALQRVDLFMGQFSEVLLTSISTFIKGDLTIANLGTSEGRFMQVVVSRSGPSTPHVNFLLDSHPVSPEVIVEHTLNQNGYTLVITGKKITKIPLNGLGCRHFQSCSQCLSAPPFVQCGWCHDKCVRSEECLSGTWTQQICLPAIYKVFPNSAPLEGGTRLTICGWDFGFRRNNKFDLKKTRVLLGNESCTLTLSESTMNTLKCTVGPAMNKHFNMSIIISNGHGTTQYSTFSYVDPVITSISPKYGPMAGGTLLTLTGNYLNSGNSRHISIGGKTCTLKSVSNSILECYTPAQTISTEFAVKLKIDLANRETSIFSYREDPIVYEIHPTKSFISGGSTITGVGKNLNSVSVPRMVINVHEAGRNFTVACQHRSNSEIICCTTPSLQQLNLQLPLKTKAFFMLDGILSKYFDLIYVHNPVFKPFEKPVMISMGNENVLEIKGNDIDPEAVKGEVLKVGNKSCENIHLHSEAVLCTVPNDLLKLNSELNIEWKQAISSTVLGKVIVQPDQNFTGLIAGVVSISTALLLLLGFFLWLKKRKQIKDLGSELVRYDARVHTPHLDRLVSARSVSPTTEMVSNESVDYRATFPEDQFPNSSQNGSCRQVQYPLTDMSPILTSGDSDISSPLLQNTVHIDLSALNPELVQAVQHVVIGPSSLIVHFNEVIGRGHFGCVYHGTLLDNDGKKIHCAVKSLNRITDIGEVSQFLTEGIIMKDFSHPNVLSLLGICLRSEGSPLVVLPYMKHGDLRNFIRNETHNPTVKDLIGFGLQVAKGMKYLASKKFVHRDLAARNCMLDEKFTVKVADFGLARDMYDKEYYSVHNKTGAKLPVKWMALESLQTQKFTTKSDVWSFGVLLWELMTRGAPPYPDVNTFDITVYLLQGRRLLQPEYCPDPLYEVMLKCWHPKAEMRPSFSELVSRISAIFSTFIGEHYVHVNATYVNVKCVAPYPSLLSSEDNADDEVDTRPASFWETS

As to `COc1cc2nccc(Oc3ccc(NC(=O)c4nn(-c5ccc(F)cc5-c5ccccc5)cc4OCC4CC4)nc3)c2cc1OC` [Compound 275], the Kd on Met, on TYRO3, on Axl and at Mer was 100 to 1000 nM in each case.
`CCOc1cn(-c2cnc(C(=O)O)nc2)nc1C(=O)Nc1ccc(Oc2ccnc3cc(OC)c(OC)cc23)cn1` [Compound 88]: the Kd is 100 to 1000 nM at Met, at least 1000 nM at TYRO3, at least 1000 nM at Axl and 100 to 1000 nM on Mer.
Turning to `CCOc1cn(-c2cnc(C(F)(F)F)cn2)nc1C(=O)Nc1ccc(Oc2ccnc3cc(OC)c(OC)cc23)cn1` [Compound 159], the Kd on Met, on TYRO3, at Axl and at Mer was at least 1000 nM each time.
As for `CCOc1cn(-c2ncc(Cl)cc2CN)nc1C(=O)Nc1ccc(Oc2ccnc3cc(OC)c(OC)cc23)cn1` [Compound 134], the Kd on Met was below 100 nM; at TYRO3, at least 1000 nM; at Axl it was 100 to 1000 nM; on Mer, below 100 nM.
On to `CCOc1cn(-c2cnc(N)cn2)nc1C(=O)Nc1ccc(Oc2ccnc3cc(OC)c(OC)cc23)cn1` [Compound 136], for which the Kd at Met, at TYRO3, on Axl and on Mer was below 100 nM throughout.
On to `CCOc1cn(-c2cnccc2OC)nc1C(=O)Nc1ccc(Oc2ccnc3cc(OC)c(OC)cc23)cn1` [Compound 173], for which the Kd on Met, on TYRO3, at Axl and on Mer was below 100 nM each time.
`COc1cc2nccc(Oc3ccc(NC(=O)c4nn(-c5ccc(F)c(C(C)=O)c5)cc4OCC(F)(F)F)nc3)c2cc1OC` [Compound 280]: the Kd on Met, on TYRO3, on Axl and at Mer was below 100 nM throughout.
Regarding `CCOc1cnn(CC2CCCN(C)C2)c1C(=O)Nc1ccc(Oc2ccnc3cc(OC)c(OC)cc23)cc1F` (stereo not drawn) [Compound 216], the equilibrium dissociation constant (Kd) is 100 to 1000 nM on Met, at least 1000 nM at TYRO3, 100 to 1000 nM on Axl and 100 to 1000 nM on Mer.
For the molecule `CCOc1cnn(C2CCN(C)CC2)c1C(=O)Nc1ccc(Oc2ccnc3cc(OC)c(OC)cc23)cc1F` [Compound 223], the Kd at Met was at least 1000 nM; on TYRO3 it was at least 1000 nM; at Axl, at least 1000 nM; at Mer, 100 to 1000 nM.
Consider `CCOc1cn(-c2ncc(Cl)cc2CN(C)C)nc1C(=O)Nc1ccc(Oc2ccnc3cc(OC)c(OC)cc23)cn1` [Compound 138], for which the dissociation constant Kd on Met was below 100 nM; on TYRO3 it was 100 to 1000 nM; on Axl, 100 to 1000 nM; at Mer, below 100 nM.
For the molecule `CCOc1c[nH]nc1C(=O)Nc1ccc(Oc2ccnc3cc(OC)c(OC)cc23)cn1` [Compound 22], the equilibrium dissociation constant (Kd) at Met was 100 to 1000 nM; at TYRO3, below 100 nM; on Axl, 100 to 1000 nM; at Mer it was below 100 nM.
Turning to `CCOc1cnn(C2CCNC2)c1C(=O)Nc1ccc(Oc2ccnc3cc(OC)c(OC)cc23)cn1` (stereo not drawn) [Compound 71], the Kd is 100 to 1000 nM on Met, at least 1000 nM at TYRO3, at least 1000 nM on Axl and 100 to 1000 nM at Mer.
Regarding `CCOc1cn(CCC(=O)O)nc1C(=O)Nc1ccc(Oc2ccnc3cc(OC)c(OC)cc23)cn1` [Compound 63], the Kd at Met, on TYRO3, on Axl and at Mer was 100 to 1000 nM throughout.
With `CCOc1cnn(CCO)c1C(=O)Nc1ccc(Oc2ccnc3cc(OC)c(OC)cc23)cn1` [Compound 72], the equilibrium dissociation constant (Kd) at Met is 100 to 1000 nM; on TYRO3 it was at least 1000 nM; at Axl, at least 1000 nM; on Mer it was 100 to 1000 nM.
As to `CCOc1cn(-c2cncc(C(F)(F)F)n2)nc1C(=O)Nc1ccc(Oc2ccnc3cc(OC)c(OC)cc23)cn1` [Compound 164], the dissociation constant Kd was 100 to 1000 nM on Met, at least 1000 nM at TYRO3, 100 to 1000 nM at Axl and below 100 nM at Mer.
Regarding `CCOc1cn(-c2ncc(F)cc2C#N)nc1C(=O)Nc1ccc(Oc2ccnc3cc(OC)c(OC)cc23)cn1` [Compound 155], the dissociation constant Kd on Met is below 100 nM; at TYRO3, 100 to 1000 nM; at Axl, below 100 nM; at Mer, below 100 nM.
Regarding `CCOc1cnn(CCc2cccnc2)c1C(=O)Nc1ccc(Oc2ccnc3cc(OC)c(OC)cc23)cn1` [Compound 95], the Kd is below 100 nM on Met, 100 to 1000 nM on TYRO3, 100 to 1000 nM at Axl and below 100 nM at Mer.
Consider `CCOc1cnn(-c2cnc(C(F)(F)F)nc2)c1C(=O)Nc1ccc(Oc2ccnc3cc(OC)c(OC)cc23)cn1` [Compound 145], for which the Kd at Met, at TYRO3, on Axl and on Mer was at least 1000 nM each time.
